From patent publication US9642889B2, “Macrocyclic inhibitors of Flaviviridae viruses” (Selcia Limited, priority 2012, dated 2017)
Read-outs that look alike come from different tables or passages of the source.

Experiments:
[1] = test system: Huh-7 HCV replicon cells (1b replicon); assay: anti-HCV activity in Huh-7 cell line harboring a HCV replicon (luciferase readout); type: cell-based; conditions: for EC50: inhibition of viral replication, Huh-7 HCV replicon cells, 3 days, read-out: EC50; for inhibition at 1 µM: Huh-7, read-out: Replicon 1b % inhibition at 1 μM, 1b replicon, 1 μM compound; for Replicon 1b % inhibition at 1 μM: 1b replicon, 1 μM compound
cyclophilin A = cyclophilin A (Homo sapiens, UniProt P62937); assay: Cyclophilin A TR-FRET competitive binding assay; conditions: competition with CsA-Cy5 for His-tagged CypA, two-hour incubation
Experimental: Cyclophilin A TR-FRET Competitive Binding Assay
Inhibitor potency was measured using a competitive binding assay with a time-resolved fluorescence resonance energy transfer (TR-FRET) readout. […] An IC50 value was calculated using a four-parameter logistic fit.

cyclophilin A, sequence (P62937 whole entry, species assumed): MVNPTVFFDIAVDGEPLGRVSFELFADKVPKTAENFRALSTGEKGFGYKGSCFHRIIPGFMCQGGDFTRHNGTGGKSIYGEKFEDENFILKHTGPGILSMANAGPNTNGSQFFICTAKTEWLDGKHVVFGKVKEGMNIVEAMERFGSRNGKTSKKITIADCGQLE

Row | SMILES | EC50 ([1]; Hepatitis C virus, Huh-7, 72 h) | inhibition at 1 µM ([1]; Hepatitis C virus) | IC50 (cyclophilin A) | Replicon 1b % inhibition at 1 μM ([1]; 1 µM) | EC50 [1] | Replicon 1b % inhibition at 1 μM [1]
1 | C[C@@H]1NC(=O)[C@H](C2COC2)OC(=O)C(C)(C)/C=C/c2ccc3ccc(nc3c2)[C@@H](C)NC(=O)[C@@H]2CCCN(N2)C1=O [Compound 95] | < 1000 nM | 88% | < 100 nM | – | – | –
2 | CC1/C=C/c2ccc3ccc(nc3c2)[C@@H](C)NC(=O)[C@@H]2CCCN(N2)C(=O)[C@H](C)NC(=O)[C@H](C(C)C)OC1 (single isomer, unassigned) [Compound 34] | < 1000 nM | 91% | < 100 nM | – | – | –
3 | CC1/C=C/c2ccc3ccc(nc3c2)[C@@H](C)OC(=O)[C@@H]2CCCN(N2)C(=O)[C@H](C)NC(=O)[C@H](C(C)C)OC1 (single isomer, unassigned) [Compound 28] | – | – | < 100 nM | 99% | < 1000 nM | –
4 | CC(C)[C@@H]1OC(=O)CCc2ccc(cc2)-c2cccc(c2)[C@@H](C)NC(=O)[C@@H]2CCCN(N2)C(=O)[C@H](C)NC1=O [Compound 6] | < 1000 nM | 94% | < 100 nM | – | – | –
5 | CCCC(=O)O[C@H]1CC[C@@]2(/C=C/c3ccc4ccc(nc4c3)[C@@H](C)NC(=O)[C@@H]3CCCN(N3)C(=O)[C@H](C)NC(=O)[C@H](C(C)C)OC2=O)CC1 [Compound 108] | < 1000 nM | 99% | < 100 nM | – | – | –
6 | COCC1NC(=O)C(C(C)C)OC(=O)C(C)(C)C=Cc2ccc3ccc(nc3c2)C(C)NC(=O)C2CCCN(N2)C1=O (single isomer, unassigned) [Compound 39] | 1100 to 10000 nM | 16% | 101 to 1000 nM | – | – | –
7 | CC(F)[C@@H]1OC(=O)C(C)(C)/C=C/c2ccc3ccc(nc3c2)[C@@H](C)NC(=O)[C@@H]2CCCN(N2)C(=O)[C@H](C)NC1=O (stereo partly drawn) [Compound 68] | < 1000 nM | 93% | < 100 nM | – | – | –
8 | CC(C)[C@@H]1OC(=O)C/C=C/c2cc3cc(ccc3cn2)[C@@H](C)NC(=O)[C@@H]2CCCN(N2)C(=O)[C@H](C)NC1=O [Compound 3] | < 1000 nM | 89% | < 100 nM | – | – | –
9 | CC(C)[C@@H]1OC(=O)C2(/C=C/c3ccc4ccc(nc4c3)[C@@H](C)NC(=O)[C@@H]3CCCN(N3)C(=O)[C@H](C)NC1=O)COCCO2 (single isomer, unassigned) [Compound 43] | – | – | < 100 nM | – | < 1000 nM | 99%
10 | CC(C)[C@@H]1OC(=O)[C@@](C)(CO)/C=C/c2ccc3ccc(nc3c2)[C@@H](C)NC(=O)[C@@H]2CCCN(N2)C(=O)[C@H](C)NC1=O [Compound 29] | < 1000 nM | 99% | < 100 nM | – | – | –
11 | CC1NC(=O)C(C2CC2)OC(=O)C2(C=Cc3ccc4ccc(nc4c3)C(C)NC(=O)C3CCCN(N3)C1=O)CCC(O)C2 (single isomer, unassigned) [Compound 104] | – | – | < 100 nM | 56% | < 1000 nM | –
12 | CC(C)[C@@H]1OC(=O)[C@H](CCC(C)N(C)C)C/C=C/c2cc3cc(ccc3cn2)[C@@H](C)NC(=O)[C@@H]2CCCN(N2)C(=O)[C@H](C)NC1=O (mixture of isomers) [Compound 16] | 1100 to 10000 nM | 20% | < 100 nM | – | – | –
13 | CC(C)[C@@H]1OC(=O)C2(/C=C/c3ccc4ccc(nc4c3)[C@@H](C)NC(=O)[C@@H]3CCCN(N3)C(=O)[C@H](C)NC1=O)CCCOC2 (single isomer, unassigned) [Compound 50] | < 1000 nM | 100% | < 100 nM | – | – | –
14 | CC[C@H](C)[C@@H]1OC(=O)C2(/C=C/c3ccc4ccc(nc4c3)[C@@H](C)NC(=O)[C@@H]3CCCN(N3)C(=O)[C@H](C)NC1=O)COCOC2 [Compound 65] | < 1000 nM | 99% | < 100 nM | – | – | –
15 | CC(C)[C@@H]1OC(=O)C2(/C=C/c3ccc4ccc(nc4c3)[C@@H](C)NC(=O)[C@@H]3CCCN(N3)C(=O)[C@H](C)NC1=O)CCC(C)(O)CC2 (stereo partly drawn) [Compound 89] | < 1000 nM | 82% | < 100 nM | – | – | –
16 | CC(C)[C@@H]1OC(=O)[C@H](C)[C@H](O)CC/C=C/c2cccc(c2)[C@@H](C)NC(=O)[C@@H]2CCCN(N2)C(=O)[C@H](C)NC1=O [Compound 7, (E)-(2R,5S,11S,14S,17R,18R)-18-Hydroxy-14-isopropyl-2,11,17-trimethyl-15-oxa-3,9,12,28-tetraaza-tricyclo[21.3.1.1*5,9*]octacosa-1(26),21,23(27),24-tetraene 4,10,13,16-tetraone] | < 1000 nM | 94% | < 100 nM | – | – | –

Row | SMILES | EC50 ([1]; Hepatitis C virus, Huh-7, 72 h) | inhibition at 1 µM ([1]; Hepatitis C virus) | IC50 (cyclophilin A) | Replicon 1b % inhibition at 1 μM ([1]; 1 µM) | EC50 [1] | Replicon 1b % inhibition at 1 μM [1]
17 | CC(C)[C@@H]1OC(=O)[C@]2(/C=C/c3ccc4ccc(nc4c3)[C@@H](C)NC(=O)[C@@H]3CCCN(N3)C(=O)[C@H](C)NC1=O)CCOC(C)(C)C2 [Compound 91] | < 1000 nM | 100% | < 100 nM | – | – | –
18 | C[C@@H]1NC(=O)[C@H](C2CCOCC2)OC(=O)C(C)(C)/C=C/c2ccc3ccc(nc3c2)[C@@H](C)NC(=O)[C@@H]2CCCN(N2)C1=O [Compound 67] | < 1000 nM | 67% | 101 to 1000 nM | – | – | –
19 | CC(C)[C@@H]1OC(=O)C2(/C=C/c3ccc4ccc(nc4c3)[C@@H](C)NC(=O)[C@@H]3CCCN(N3)C(=O)[C@H](C)NC1=O)CCCCO2 (mixture of isomers) [Compound 49] | < 1000 nM | 100% | < 100 nM | – | – | –
20 | CC(C)C(=O)O[C@H]1CC[C@]2(/C=C/c3ccc4ccc(nc4c3)[C@@H](C)NC(=O)[C@@H]3CCCN(N3)C(=O)[C@H](C)NC(=O)[C@H](C(C)C)OC2=O)CC1 [Compound 81] | < 1000 nM | 100% | < 100 nM | – | – | –
21 | CC1/C=C/c2cc3cc(ccc3cn2)[C@@H](C)NC(=O)[C@@H]2CCCN(N2)C(=O)[C@H](C)NC(=O)[C@H](C(C)C)OC1=O (stereo partly drawn) [Compound 5] | < 1000 nM | 93% | < 100 nM | – | – | –
22 | CC(C)[C@@H]1OC(=O)C2(/C=C/c3ccc4ccc(nc4c3)[C@@H](C)NC(=O)[C@@H]3CCCN(N3)C(=O)[C@H](C)NC1=O)CCOC2 (stereo partly drawn) [Compound 73] | < 1000 nM | 97% | < 100 nM | – | – | –
23 | CC(C)[C@@H]1OC(=O)[C@@](C)(COC(F)(F)F)/C=C/c2ccc3ccc(nc3c2)[C@@H](C)NC(=O)[C@@H]2CCCN(N2)C(=O)[C@H](C)NC1=O [Compound 56] | < 1000 nM | 99% | < 100 nM | – | – | –
24 | CC1/C=C/c2ccc3ccc(nc3c2)[C@@H](C)NC(=O)[C@@H]2CCCN(N2)C(=O)[C@H](C)NC(=O)[C@H](C(C)C)OC1 (single isomer, unassigned) [Compound 35] | < 1000 nM | 88% | < 100 nM | – | – | –
25 | C[C@@H]1NC(=O)[C@H](C2CC2)OC(=O)C2(/C=C/c3ccc4ccc(nc4c3)[C@@H](C)NC(=O)[C@@H]3CCCN(N3)C1=O)COCOC2 [Compound 53] | < 1000 nM | 99% | < 100 nM | – | – | –
26 | CC(C)[C@@H]1OC(=O)[C@@]2(/C=C/c3ccc4ccc(nc4c3)[C@@H](C)NC(=O)[C@@H]3CCCN(N3)C(=O)[C@H](C)NC1=O)CCOC(C)(C)C2 [Compound 90] | < 1000 nM | 99% | < 100 nM | – | – | –
27 | CC(C)[C@@H]1OC(=O)C2(/C=C/c3ccc4ccc(nc4c3)[C@@H](C)NC(=O)[C@@H]3CCCN(N3)C(=O)[C@H](C)NC1=O)COC(C)(C)CO2 (single isomer, unassigned) [Compound 100] | – | – | < 100 nM | – | < 1000 nM | 100%
28 | CC(C)C(=O)O[C@H]1CC[C@@]2(/C=C/c3ccc4ccc(nc4c3)[C@@H](C)NC(=O)[C@@H]3CCCN(N3)C(=O)[C@H](C)NC(=O)[C@H](C(C)C)OC2=O)CC1 [Compound 80] | < 1000 nM | 99% | < 100 nM | – | – | –
29 | CO[C@@H]1CC/C=C/c2cccc(c2)[C@@H](C)NC(=O)[C@@H]2CCCN(N2)C(=O)[C@H](C)NC(=O)[C@H](C(C)C)OC(=O)[C@@H]1C [Compound 1] | < 1000 nM | 97% | < 100 nM | – | – | –
30 | CC(C)[C@@H]1OC(=O)C2(/C=C/c3ccc4ccc(nc4c3)[C@@H](C)NC(=O)[C@@H]3CCCN(N3)C(=O)[C@H](C)NC1=O)CCCOC2 (single isomer, unassigned) [Compound 51] | < 1000 nM | 100% | < 100 nM | – | – | –
31 | C[C@@H]1NC(=O)[C@H](CC(F)F)OC(=O)C(C)(C)/C=C/c2ccc3ccc(nc3c2)[C@@H](C)NC(=O)[C@@H]2CCCN(N2)C1=O [Compound 62] | < 1000 nM | 84% | < 100 nM | – | – | –
